Test results: patent US9567301B2, “Pyrrol-1-yl benzoic acid derivatives useful as myc inhibitors” (Whitehead Institute for Biomedical Research, priority 2012, dated 2017)

Key:
[1] = tested on: H2171 cells; test: Cell viability assay (ATPlite), H2171; assay type: cell-based, human; conditions: cell viability, three days, ATPlite, NA: inactive under assay conditions
Procedure: (§1) This assay was used for the H2171 and MM1S cell data shown in Table 2, and for the Jurkat (an immortalized line of human T lymphocyte cells), Ly1 (OCI-Ly1 human non-Hodgkin lymphoma cell line), Ly4 (OCI-Ly4 human non-Hodgkin lymphoma cell line), H2172 (NCI-H2172 human non-small cell lung cancer cell line), and CA-46 (a human Burkitt's lymphoma cell line) cell data shown in Table 3 and FIG. 12. Cells were counted and adjusted to 60,000 cells/mL. Using a Biotek EL406, 50 μL of cells are media were distributed into 384 well white plates from Thermo. Immediately after plating, compound in DMSO was distributed to plates. For large plate sets, cells were returned to 37° C. incubator while not in use.
(§2) Compounds were added to plates using a 100 nL 384 well pin transfer manifold on a Janus workstation. Stocks were arrayed in 10 point quadruplicate dose response in DMSO stock in 384 well Greiner compound plates. After addition of compound, plates were incubated for three days in a 37° C. incubator.
(§3) Cell viability was read out using ATPlite from Perkin Elmer. Plates were removed from the incubator and brought to room temperature prior to use. Lyophilized powder was resuspended in lysis buffer and diluted 1:2 with DI water. 25 μL of this solution was added to each well using the Biotek liquid handler. Plates were sealed with adherent aluminum seals prior to vortexing and spinning down at 1000 g for 1 minute. Plates were incubated for 15 minutes at room temperature before signal was read on an Envision Plate Reader.

[2] = biological target: c-Myc/Max/Ebox DNA (Homo sapiens, UniProt P01106); test: c-Myc/Max/Ebox DNA AlphaScreen assay; assay type: binding; design: An exemplary assay uses full-length human c-Myc and Max proteins; his6 (cleaved yes); made in house; conditions: c-Myc/Max/Ebox DNA AlphaScreen; NA: inactive under assay conditions; read-out: Biochemical IC50
Procedure: This protocol was used to generate the biochemical data in Table 2 and FIG. 11. The primary AlphaScreen assay is amenable to 384-well and 1536-well plate formats for HTS. Human his6-c-Myc and his6-Max were used with biotinylated DNA containing a single Ebox sequence (biotin[…]) purchased from MWG Operon. Free c-Myc was generated from his6-c-Myc through thrombin cleavage of the his6 tag. For 384-well plate assays, 10 μL of a 2× solution of free c-Myc (25 nM final), Ni++-coated Acceptor Bead (25 μg/ml final), and biotinylated Ebox oligo (10 nM final) were added to 384-well plates with a Biotek EL406 liquid handler. 100 nL of compounds from stock plates were added by pin transfer using a Janus Workstation (PerkinElmer), allowing the compounds to interact with c-Myc prior to c-Myc binding with Max. In the current assay, DMSO was not allowed to exceed 2% v/v of the assay. 10 μl of 2× master mix containing streptavidin-coated donor beads (25 μg/ml final) and his6-Max (1.25 nM final) were added. AlphaScreen measurements were performed on an Envision 2104 (PerkinElmer) utilizing the manufacturer's protocol. The assay can also be performed in 1536-plate format with 8 μL total volume using two 4 μL additions (instead of […] and 10 μL respectively).
Assays are performed with minor modifications from the manufacturer's protocol (PerkinElmer). Both master mixes were made in room temperature assay buffer (50 mM HEPES, 150 mM NaCl, 0.2% w/v BSA, 0.02% w/v Tween20, 40 μg/ml glycogen, 500 μM DTT, pH 8.0, DTT and glycogen added fresh). Alpha beads were added to respective master solutions and wrapped in foil. All subsequent steps were performed in low light conditions. Solution 1: 2× solution of components with final concentrations of cMyc (25 nM), Ni-coated Acceptor Bead (25 μg/ml), and biotinylated Ebox oligo (10 nM). Solution 2: 2× solution of streptavidin-coated donor beads (25 μg/ml final) and his6-Max (1.25 nM final). […] Solution 1 were added to 384-well plate (AlphaPlate-384, PerkinElmer) with Biotek EL406 liquid handler and the plates were centrifuged at 1000 rpm for 1 minute. 100 nL of compounds from stock plates were added by pin transfer using a Janus Workstation. 10 μL Solution 2 were added with the liquid handler. Plates were sealed with foil to block light exposure and prevent evaporation. Plates were centrifuged at 1000 rpm for 1 minute followed by 2 hour incubation. AlphaScreen measurements were performed on an Envision 2104 utilizing the manufacturer's protocol. Excitation was at 680 nm for donor bead release of singlet oxygen and emission was read with a bandpass filter from 520-620 nm. Glycogen: Roche Diagnostics #10901393001. Plate 1536: Perkin Elmer, 6004350. Plate 384: Perkin Elmer, 6005350. Nickel-His Alpha Beads: 6760619R.

[3] = tested on: MM1S cells; test: Cell viability assay (ATPlite), MM1S; assay type: cell-based, human; conditions: for EC50: cell viability, three days, ATPlite, NA: inactive under assay conditions
Procedure: as §1, §2, §3

c-Myc/Max/Ebox DNA, sequence (P01106 16-454): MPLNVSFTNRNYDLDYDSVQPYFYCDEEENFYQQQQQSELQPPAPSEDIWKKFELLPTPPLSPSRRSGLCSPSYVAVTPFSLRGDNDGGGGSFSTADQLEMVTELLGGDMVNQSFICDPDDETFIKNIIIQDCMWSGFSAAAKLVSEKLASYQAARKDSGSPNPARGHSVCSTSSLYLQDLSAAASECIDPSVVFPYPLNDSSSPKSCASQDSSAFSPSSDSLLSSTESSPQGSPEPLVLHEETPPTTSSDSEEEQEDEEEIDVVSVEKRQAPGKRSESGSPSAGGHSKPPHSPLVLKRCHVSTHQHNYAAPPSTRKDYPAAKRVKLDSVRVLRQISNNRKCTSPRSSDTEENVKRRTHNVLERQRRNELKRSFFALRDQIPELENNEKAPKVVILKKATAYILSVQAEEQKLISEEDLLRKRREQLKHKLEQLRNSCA

| SMILES | EC50 ([1]; Homo sapiens, NCI-H2171, 72 h) [µM] | IC50 [2] [µM] | EC50 ([3]; Homo sapiens, MM1.S, 72 h) [µM] | further results |
| --- | --- | --- | --- | --- |
| Cc1ccc(C)n1-c1ccc(C(=O)O)cc1O [Compound 7] | 122 | 23.5 | – | – |
| COC(=O)c1ccc(-n2cccc2)cc1O [Compound 9] | 229 | – | 127 | – |
| Cc1cc(C(=O)O)ccc1-n1c(C)ccc1C [Compound 11] | 60.6 | 45.8 | – | – |
| CC(=O)Oc1cc(-n2c(C)ccc2C)ccc1C(=O)O [Compound 66] | 67.9 | – | 3570 | – |
| Cc1ccc(C)n1-c1cc(C(=O)N2CCOCC2)ccc1C(=O)O [Compound 75] | 114 | 8.58 | – | – |
| Cc1ccc(C)n1-c1cc(C(=O)N/N=C/c2ncc[nH]2)ccc1C(=O)O [Compound 81] | 106 | 2.72 | – | – |
| COc1ccc(/C=N/NC(=O)c2ccc(C(=O)O)c(-n3c(C)ccc3C)c2)c(OC)c1 [Compound 85] | 97.3 | 37.9 | – | – |
| Cc1ccc(C)n1-c1cc(C(=O)N/N=C/c2ccc(N(C)C)cc2)ccc1C(=O)O [Compound 87] | – | 31.4 | 86.5 | – |
| Cc1ccc(C)n1-c1cc(C(=O)N/N=C/c2c(Cl)ncnc2Cl)ccc1C(=O)O [Compound 88] | – | 4.88 | 8080 | – |
| Cc1ccc(C)n1-c1cc(C(=O)N/N=C/c2ccc3ccccc3n2)ccc1C(=O)O [Compound 90] | – | 17.5 | 52.5 | – |
| Cc1ccc(C)n1-c1cc(C(=O)N/N=C/c2cc(F)ccc2C(F)(F)F)ccc1C(=O)O [Compound 91] | – | 3.99 | 4260 | – |
| Cc1ccc(C)n1-c1cc(C(=O)N/N=C/c2cncnc2)ccc1C(=O)O [Compound 93] | – | 5.56 | 263 | – |
| Cc1ccc(C)n1-c1cc(C(=O)N/N=C/c2c[nH]c3cc(F)ccc23)ccc1C(=O)O [Compound 96] | 38.1 | 34.4 | – | – |
| Cc1cc(C)c2c(=O)c(/C=N/NC(=O)c3ccc(C(=O)O)c(-n4c(C)ccc4C)c3)coc2c1 [Compound 97] | – | 5.55 | 1040 | – |
| COc1ncc(/C=N/NC(=O)c2ccc(C(=O)O)c(-n3c(C)ccc3C)c2)c(OC)n1 [Compound 100] | 266 | 7.67 | – | – |
| Cc1ccc(C)n1-c1cc(C(=O)N/N=C/c2ccc3cccnc3n2)ccc1C(=O)O [Compound 105] | – | 2.97 | 118 | – |
| Cc1ccc(C)n1-c1cc(C(=O)N/N=C/c2cccc3ncccc23)ccc1C(=O)O [Compound 106] | 144 | 15.1 | – | – |
| Cc1ccc(C)n1-c1cc(C(=O)N/N=C/c2cc(F)c(F)c(F)c2)ccc1C(=O)O [Compound 107] | 32.3 | 9.3 | – | – |
| CC(=O)OCOC(=O)c1ccc(C(=O)N/N=C/c2c[nH]cn2)cc1-n1c(C)ccc1C [Compound 108] | 0.556 | – | – | – |
| CC(=O)OCOC(=O)c1ccc(C(=O)N/N=C/c2ccc(-c3nnn[nH]3)cc2)cc1-n1c(C)ccc1C [Compound 109] | 1.02 | – | 9.99 | – |
| CC(=O)OCOC(=O)c1ccc(C(=O)N/N=C/c2c(CO)cnc(C)c2O)cc1-n1c(C)ccc1C [Compound 111] | 2.4 | – | 21.8 | – |

| SMILES | EC50 ([1]; Homo sapiens, NCI-H2171, 72 h) [µM] | IC50 [2] [µM] | EC50 ([3]; Homo sapiens, MM1.S, 72 h) [µM] | further results |
| --- | --- | --- | --- | --- |
| CC(=O)OCOC(=O)c1ccc(C(=O)N/N=C/c2ccc(S(=O)(=O)O)o2)cc1-n1c(C)ccc1C [Compound 112] | 1.04 | – | 9.25 | – |
| CC(=O)OCOC(=O)c1ccc(-n2c(C)ccc2C)cc1O [Compound 113] | – | – | – | EC50 [1]: 2.8 µM; EC50 [3]: 11 µM |
| CC(=O)OCOC(=O)c1cccc(/C=N/NC(=O)c2ccc(C(=O)OCOC(C)=O)c(-n3c(C)ccc3C)c2)c1 [Compound 114] | 1.21 | – | 11.7 | – |
| CC(=O)OCOC(=O)c1ccc(C(=O)N/N=C/c2ccc3cccnc3n2)cc1-n1c(C)ccc1C [Compound 115] | 0.913 | – | 13.6 | – |
| Cc1ccc(C)n1-c1cc(C(=O)N/N=C\c2ccc(C(=O)O)s2)ccc1C(=O)O [Compound 122] | 174 | 0.492 | – | – |
| Cc1ccc(C)n1-c1cc(C(=O)N/N=C\c2ccc(S(=O)(=O)O)cc2)ccc1C(=O)O [Compound 123] | 96.4 | 0.291 | – | – |
| COc1cc(-n2c(C)ccc2C)c(Cl)cc1C(=O)O [Compound 131] | 3400 | 493 | – | – |
| Cc1ccc(C)n1-c1c(C(=O)O)cccc1[N+](=O)[O-] [Compound 132] | 310 | – | 647 | – |
| Cc1ccc(C)n1-c1ccccc1C(N)=O [Compound 133] | – | – | 450 | – |
| Cc1ccc(C)n1-c1cnccc1C(=O)O [Compound 135] | – | 6800 | 305 | – |
| Cc1ccc(C)n1-c1cccc(C(=O)c2ccccc2)c1C(=O)O [Compound 136] | 215 | 94.7 | – | – |
| Cc1c(C)c(C)n(-c2ccccc2C(=O)O)c1C [Compound 138] | 270 | – | 194 | – |
| O=C(O)c1ccccc1-n1c2ccccc2c2ccccc21 [Compound 141] | 268 | – | 148 | – |
| Cc1ccc(C)n1-c1cc(C(=O)NN)ccc1C(=O)O [Compound 142] | – | 7.58 | – | EC50 [3]: 625 µM |
| CC(=O)OCOC(=O)c1ccc(-n2c(C)ccc2C)cc1O [Compound 144] | – | – | – | EC50 [3]: 446 µM |
| Cc1ccc(C)n1-c1ccc(Cl)cc1C(=O)O [Compound 147] | 170 | 11.5 | – | – |
| CC(=O)OCOC(=O)c1ccccc1-n1ccnc1C [Compound 151] | 43.5 | – | 156 | – |
| Cc1ccc(C)n1-c1cc(C(=O)O)ccc1C(=O)O [Compound 157] | – | – | 11000 | – |
| Cc1ccc(C)n1-c1ccc(C(=O)O)c([N+](=O)[O-])c1 [Compound 163] | – | 155 | 98.5 | – |
| CC(=O)OCOC(=O)c1cccc(/C=N/NC(=O)c2ccc(C(=O)OCOC(C)=O)c(-n3c(C)ccc3C)c2)c1 [acetomoxymethyl ester prodrug] | – | – | – | cellular activity/potency in cellular proliferation assay ([3]; MM1.S, prodrug relative to free acid (FIG. 3, FIG. 4)): increases cellular potency |
